Data taken from ChEMBL document CHEMBL5724806, “Unraveling interindividual differences and functional consequences of gut microbial metabolism of immunosuppressants” (2024).

Legend:
Format in all cases: ADME
[1] = The drug is tested on the gut metagenome community of T-03 with ENA study accession number: PRJEB31790 for biotransformation under anaerobic condition. The drug concentrations were measured over 7 timepoints collected between 0 and 12 hours of incubation by liquid-chromatography-coupled mass spectrometry (LC–MS); design: dose 5 uM, timepoint 0, 0.75, 1.5, 3, 6, 9, 12 hours; settings: 5 µM
[2] = The drug is tested on Lactobacillus fermentum strain: DSM20052 for biotransformation under microaerobic condition. The drug concentrations were measured over 6 timepoints collected between 0 and 12 hours of incubation by liquid-chromatography-coupled mass spectrometry (LC–MS); design: dose 5 uM, timepoint 0, 1.5, 3, 6, 9, 12 hours; settings: limosilactobacillus fermentum, 5 µM
[3] = The drug is tested on Lactobacillus fermentum strain: DSM20052 for biotransformation under anaerobic condition. The drug concentrations were measured over 6 timepoints collected between 0 and 12 hours of incubation by liquid-chromatography-coupled mass spectrometry (LC–MS); design: dose 5 uM, timepoint 0, 1.5, 3, 6, 9, 12 hours; settings: limosilactobacillus fermentum, 5 µM
[4] = The drug is tested on Prevotella copri strain: DSM18205 for biotransformation under anaerobic condition. The drug concentrations were measured over 6 timepoints collected between 0 and 12 hours of incubation by liquid-chromatography-coupled mass spectrometry (LC–MS); design: dose 5 uM, timepoint 0, 1.5, 3, 6, 9, 12 hours; settings: segatella copri, 5 µM
[5] = The drug is tested on Gemella morbillorum strain: DSM20572 for biotransformation under anaerobic condition. The drug concentrations were measured over 6 timepoints collected between 0 and 12 hours of incubation by liquid-chromatography-coupled mass spectrometry (LC–MS); design: dose 5 uM, timepoint 0, 1.5, 3, 6, 9, 12 hours; settings: 5 µM
[6] = The drug is tested on the gut metagenome community of T-01 with ENA study accession number: PRJEB31790 for biotransformation under microaerobic condition. The drug concentrations were measured over 7 timepoints collected between 0 and 12 hours of incubation by liquid-chromatography-coupled mass spectrometry (LC–MS); design: dose 5 uM, timepoint 0, 0.75, 1.5, 3, 6, 9, 12 hours; settings: 5 µM
[7] = The drug is tested on the gut metagenome community of T-02 with ENA study accession number: PRJEB31790 for biotransformation under microaerobic condition. The drug concentrations were measured over 7 timepoints collected between 0 and 12 hours of incubation by liquid-chromatography-coupled mass spectrometry (LC–MS); design: dose 5 uM, timepoint 0, 0.75, 1.5, 3, 6, 9, 12 hours; settings: 5 µM
[8] = The drug is tested on the gut metagenome community of A-01 with ENA study accession number: PRJEB31790 for biotransformation under microaerobic condition. The drug concentrations were measured over 7 timepoints collected between 0 and 12 hours of incubation by liquid-chromatography-coupled mass spectrometry (LC–MS); design: dose 5 uM, timepoint 0, 0.75, 1.5, 3, 6, 9, 12 hours; settings: 5 µM
[9] = The drug is tested on Streptococcus sanguinis strain: DSM20567 for biotransformation under anaerobic condition. The drug concentrations were measured over 6 timepoints collected between 0 and 12 hours of incubation by liquid-chromatography-coupled mass spectrometry (LC–MS); design: dose 5 uM, timepoint 0, 1.5, 3, 6, 9, 12 hours; settings: 5 µM
[10] = The drug is tested on Bifidobacterium longum strain: DSM20088 for biotransformation under anaerobic condition. The drug concentrations were measured over 6 timepoints collected between 0 and 12 hours of incubation by liquid-chromatography-coupled mass spectrometry (LC–MS); design: dose 5 uM, timepoint 0, 1.5, 3, 6, 9, 12 hours; settings: 5 µM
[11] = The drug is tested on Dorea formicigenerans strain: DSM3992 for biotransformation under anaerobic condition. The drug concentrations were measured over 6 timepoints collected between 0 and 12 hours of incubation by liquid-chromatography-coupled mass spectrometry (LC–MS); design: dose 5 uM, timepoint 0, 1.5, 3, 6, 9, 12 hours; settings: 5 µM
[12] = The drug is tested on the gut metagenome community of A-09 with ENA study accession number: PRJEB31790 for biotransformation under microaerobic condition. The drug concentrations were measured over 7 timepoints collected between 0 and 12 hours of incubation by liquid-chromatography-coupled mass spectrometry (LC–MS); design: dose 5 uM, timepoint 0, 0.75, 1.5, 3, 6, 9, 12 hours; settings: 5 µM
[13] = The drug is tested on Odoribacter splanchnicus strain: DSM20712 for biotransformation under anaerobic condition. The drug concentrations were measured over 6 timepoints collected between 0 and 12 hours of incubation by liquid-chromatography-coupled mass spectrometry (LC–MS); design: dose 5 uM, timepoint 0, 1.5, 3, 6, 9, 12 hours; settings: 5 µM
[14] = The drug is tested on Capnocytophaga ochracea strain: DSM7271 for biotransformation under anaerobic condition. The drug concentrations were measured over 6 timepoints collected between 0 and 12 hours of incubation by liquid-chromatography-coupled mass spectrometry (LC–MS); design: dose 5 uM, timepoint 0, 1.5, 3, 6, 9, 12 hours; settings: 5 µM
[15] = The drug is tested on Gemella haemolysans strain: DSM107751 for biotransformation under anaerobic condition. The drug concentrations were measured over 6 timepoints collected between 0 and 12 hours of incubation by liquid-chromatography-coupled mass spectrometry (LC–MS); design: dose 5 uM, timepoint 0, 1.5, 3, 6, 9, 12 hours; settings: 5 µM
[16] = The drug is tested on Escherichia coli strain: DSM27469 for biotransformation under anaerobic condition. The drug concentrations were measured over 6 timepoints collected between 0 and 12 hours of incubation by liquid-chromatography-coupled mass spectrometry (LC–MS); design: dose 5 uM, timepoint 0, 1.5, 3, 6, 9, 12 hours; settings: 5 µM
[17] = The drug is tested on the gut metagenome community of A-05 with ENA study accession number: PRJEB31790 for biotransformation under anaerobic condition. The drug concentrations were measured over 7 timepoints collected between 0 and 12 hours of incubation by liquid-chromatography-coupled mass spectrometry (LC–MS); design: dose 5 uM, timepoint 0, 0.75, 1.5, 3, 6, 9, 12 hours; settings: 5 µM
[18] = The drug is tested on Bacteroides ovatus strain: ATCC 8483 for biotransformation under anaerobic condition. The drug concentrations were measured over 6 timepoints collected between 0 and 12 hours of incubation by liquid-chromatography-coupled mass spectrometry (LC–MS); design: dose 5 uM, timepoint 0, 1.5, 3, 6, 9, 12 hours; settings: 5 µM
[19] = The drug is tested on the gut metagenome community of P-03 with ENA study accession number: PRJEB31790 for biotransformation under anaerobic condition. The drug concentrations were measured over 7 timepoints collected between 0 and 12 hours of incubation by liquid-chromatography-coupled mass spectrometry (LC–MS); design: dose 5 uM, timepoint 0, 0.75, 1.5, 3, 6, 9, 12 hours; settings: 5 µM
[20] = The drug is tested on Escherichia coli strain: DSM27469 for biotransformation under microaerobic condition. The drug concentrations were measured over 6 timepoints collected between 0 and 12 hours of incubation by liquid-chromatography-coupled mass spectrometry (LC–MS); design: dose 5 uM, timepoint 0, 1.5, 3, 6, 9, 12 hours; settings: 5 µM
[21] = The drug is tested on the gut metagenome community of A-10 with ENA study accession number: PRJEB31790 for biotransformation under anaerobic condition. The drug concentrations were measured over 7 timepoints collected between 0 and 12 hours of incubation by liquid-chromatography-coupled mass spectrometry (LC–MS); design: dose 5 uM, timepoint 0, 0.75, 1.5, 3, 6, 9, 12 hours; settings: 5 µM
[22] = The drug is tested on Parabacteroides merdae strain: DSM19495 for biotransformation under anaerobic condition. The drug concentrations were measured over 6 timepoints collected between 0 and 12 hours of incubation by liquid-chromatography-coupled mass spectrometry (LC–MS); design: dose 5 uM, timepoint 0, 1.5, 3, 6, 9, 12 hours; settings: 5 µM
[23] = The drug is tested on the gut metagenome community of A-09 with ENA study accession number: PRJEB31790 for biotransformation under anaerobic condition. The drug concentrations were measured over 7 timepoints collected between 0 and 12 hours of incubation by liquid-chromatography-coupled mass spectrometry (LC–MS); design: dose 5 uM, timepoint 0, 0.75, 1.5, 3, 6, 9, 12 hours; settings: 5 µM
[24] = The drug is tested on the gut metagenome community of A-10 with ENA study accession number: PRJEB31790 for biotransformation under microaerobic condition. The drug concentrations were measured over 7 timepoints collected between 0 and 12 hours of incubation by liquid-chromatography-coupled mass spectrometry (LC–MS); design: dose 5 uM, timepoint 0, 0.75, 1.5, 3, 6, 9, 12 hours; settings: 5 µM
[25] = The drug is tested on Parabacteroides distasonis strain: DSM20701 for biotransformation under anaerobic condition. The drug concentrations were measured over 6 timepoints collected between 0 and 12 hours of incubation by liquid-chromatography-coupled mass spectrometry (LC–MS); design: dose 5 uM, timepoint 0, 1.5, 3, 6, 9, 12 hours; settings: 5 µM
[26] = The drug is tested on Bifidobacterium longum strain: DSM20088 for biotransformation under microaerobic condition. The drug concentrations were measured over 6 timepoints collected between 0 and 12 hours of incubation by liquid-chromatography-coupled mass spectrometry (LC–MS); design: dose 5 uM, timepoint 0, 1.5, 3, 6, 9, 12 hours; settings: 5 µM

Row | Compound | Bacterial Biotransformation [1] | Bacterial Biotransformation [2] | Bacterial Biotransformation [3] | Bacterial Biotransformation [4] | Bacterial Biotransformation [5] | Bacterial Biotransformation [6] | Bacterial Biotransformation [7] | Bacterial Biotransformation [8] | Bacterial Biotransformation [9] | Bacterial Biotransformation [10] | Bacterial Biotransformation [11] | Bacterial Biotransformation [12] | Bacterial Biotransformation [13] | Bacterial Biotransformation [14] | Bacterial Biotransformation [15] | Bacterial Biotransformation [16] | Bacterial Biotransformation [17] | Bacterial Biotransformation [18] | Bacterial Biotransformation [19] | Bacterial Biotransformation [20] | other results
1 | C[C@@H]1C[C@H]2[C@@H]3CCC4=CC(=O)C=C[C@]4(C)[C@@]3(F)[C@@H](O)C[C@]2(C)[C@@]1(O)C(=O)CO [DEXAMETHASONE] | Compound NOT metabolized | Compound NOT metabolized | Compound NOT metabolized | Compound NOT metabolized | Compound NOT metabolized | Compound metabolized | Compound metabolized | Compound NOT metabolized | Compound NOT metabolized | Compound NOT metabolized | Compound NOT metabolized | Compound metabolized | Compound NOT metabolized | Compound NOT metabolized | Compound NOT metabolized | Compound NOT metabolized | Compound NOT metabolized | Compound NOT metabolized | Compound NOT metabolized | Compound NOT metabolized | Bacterial Biotransformation [21]: Compound NOT metabolized; Bacterial Biotransformation [22]: Compound NOT metabolized; Bacterial Biotransformation [23]: Compound metabolized; Bacterial Biotransformation [24]: Compound NOT metabolized; Bacterial Biotransformation [25]: Compound NOT metabolized; Bacterial Biotransformation [26]: Compound NOT metabolized
2 | COc1ccc([C@@H]2Sc3ccccc3N(CCN(C)C)C(=O)[C@@H]2OC(C)=O)cc1 [DILTIAZEM] | Compound NOT metabolized | Compound NOT metabolized | Compound NOT metabolized | Compound NOT metabolized | Compound NOT metabolized | Compound metabolized | Compound metabolized | Compound metabolized | Compound NOT metabolized | Compound NOT metabolized | Compound NOT metabolized | Compound metabolized | Compound NOT metabolized | Compound NOT metabolized | Compound NOT metabolized | Compound NOT metabolized | Compound metabolized | Compound metabolized | Compound metabolized | Compound metabolized | Bacterial Biotransformation [21]: Compound NOT metabolized; Bacterial Biotransformation [22]: Compound metabolized; Bacterial Biotransformation [23]: Compound metabolized; Bacterial Biotransformation [24]: Compound metabolized; Bacterial Biotransformation [25]: Compound metabolized; Bacterial Biotransformation [26]: Compound NOT metabolized
3 | CO[C@H]1C[C@@H]2CC[C@@H](C)[C@@](O)(O2)C(=O)C(=O)N2CCCC[C@H]2C(=O)O[C@H]([C@H](C)C[C@@H]2CC[C@@H](OCCO)[C@H](OC)C2)CC(=O)[C@H](C)/C=C(\C)[C@@H](O)[C@@H](OC)C(=O)[C@H](C)C[C@H](C)/C=C/C=C/C=C/1C [EVEROLIMUS] | Compound NOT metabolized | Compound NOT metabolized | Compound NOT metabolized | Compound NOT metabolized | Compound NOT metabolized | Compound NOT metabolized | Compound metabolized | Compound metabolized | Compound NOT metabolized | Compound NOT metabolized | Compound metabolized | Compound metabolized | Compound NOT metabolized | Compound NOT metabolized | Compound NOT metabolized | Compound NOT metabolized | Compound metabolized | Compound NOT metabolized | Compound NOT metabolized | Compound NOT metabolized | Bacterial Biotransformation [21]: Compound metabolized; Bacterial Biotransformation [22]: Compound NOT metabolized; Bacterial Biotransformation [23]: Compound metabolized; Bacterial Biotransformation [24]: Compound NOT metabolized; Bacterial Biotransformation [25]: Compound NOT metabolized; Bacterial Biotransformation [26]: Compound NOT metabolized
